Assay [1] deals with T1, SARS-CoV-2 PLpro (nsp3 1564–1878) (Severe acute respiratory syndrome coronavirus 2, UniProt P0DTD1). Kind of assay: biochemical. As to conditions: read-out: % of control remaining. The arrangement: FRET-quenched peptide (Pro3) cleavage by PLpro, 10 min pre-incubation, slope over 20 min, normalised to no-compound control.
In assay [2] the target is T1, SARS-CoV-2 PLpro (nsp3 1564–1878). Kind of assay: biochemical. As to conditions: read-out: % of control remaining. The arrangement: FRET-quenched peptide (Pro3) cleavage by PLpro, 10 min pre-incubation, slope over 20 min, normalised to no-compound control. This is another data set of the same source.

SMILES strings stand for the structures. Where a name gives a salt, the structure may show the parent alone. Read-outs that look alike come from different tables or passages of the source. Where a SMILES comes first, the peptide text is derived from it.

In the case of `CN(C)CCC(c1ccc(Br)cc1)c1ccccn1` (stereo not drawn) [Brompheniramine], the remaining activity at 1.25 µM in assay [1] (Well no.=5292, low concentration screen) is 99%. In assay [2] (Well no.=5292, high concentration screen), the remaining activity at 3.75 µM stood at 96.1%.
For the molecule `CC(C)(C)Cn1c(N)nc2ccc(-c3[nH]c(C(C)(C)C)nc3-c3ccc(F)cc3)nc21` [LY2228820], the remaining activity at 1.25 µM in assay [1] (Well no.=4915, low concentration screen) is 98.6%. Further, in assay [2] (Well no.=4915, high concentration screen), the remaining activity at 3.75 µM turned out to be 99.6%.
On to `Cc1nc2sccn2c(=O)c1CCN1CCC(=C(c2ccc(F)cc2)c2ccc(F)cc2)CC1` [Ritanserin], for which the remaining activity at 1.25 µM in assay [1] (Well no.=1352, low concentration screen) was 94.6%. Also, the remaining activity at 3.75 µM in assay [2] (Well no.=1352, high concentration screen) came out at 96.7%.
In the case of `COc1cccc(-n2c(=O)[nH]c3cc(Cl)n(-c4ccc(-c5cccc(OC)c5O)cc4)c3c2=O)c1` [GSK621], the remaining activity at 1.25 µM in assay [1] (Well no.=8626, low concentration screen) amounted to 101%. In addition, in assay [2] (Well no.=8626, high concentration screen), the remaining activity at 3.75 µM amounted to 99.7%.
For the molecule `CCN1CCCC1CNC(=O)c1cc(S(N)(=O)=O)ccc1OC` (racemic), in assay [1] (Well no.=1174, low concentration screen), the remaining activity at 1.25 µM was 105%. For the same molecule, the remaining activity at 3.75 µM in assay [2] (Well no.=1174, high concentration screen) was 106%.
With `C[C@@H](O)CC(=O)O` [(R)-3-Hydroxybutanoic acid], in assay [1] (Well no.=7123, low concentration screen), the remaining activity at 1.25 µM stood at 106%. Further, the remaining activity at 3.75 µM in assay [2] (Well no.=7123, high concentration screen) was 105%.
Turning to `COc1cc2ncnc(Nc3cccc(Cl)c3)c2cc1OC` [Tyrphostin AG 1478], the remaining activity at 1.25 µM in assay [1] (Well no.=1191, low concentration screen) turned out to be 100%. Further, the remaining activity at 3.75 µM in assay [2] (Well no.=1191, high concentration screen) turned out to be 100%.
As for `C[C@@H](C(=O)Nc1ccc(Cl)cc1)[C@H]1CC[C@@H](c2ccnc3ccc(F)cc32)CC1` [Linrodostat], in assay [1] (Well no.=8267, low concentration screen), the remaining activity at 1.25 µM is 97.9%. Besides, the remaining activity at 3.75 µM in assay [2] (Well no.=8267, high concentration screen) was determined as 99.1%.
Consider `CC(C)Oc1ccc2c(=O)c(-c3ccccc3)coc2c1` [Ipriflavone], for which, in assay [1] (Well no.=5242, low concentration screen), the remaining activity at 1.25 µM was 95.6%. The remaining activity at 3.75 µM in assay [2] (Well no.=5242, high concentration screen) was found to be 97.9%.
Consider `CCN1CCc2nc(N)oc2CC1` [B-HT 933 dihydrochloride], for which the remaining activity at 1.25 µM in assay [1] (Well no.=87, low concentration screen) came out at 102%. In assay [2] (Well no.=87, high concentration screen), the remaining activity at 3.75 µM amounted to 105%.
As for `C[C@@H](O)[C@@H]1NC(=O)[C@H](CCCCN)NC(=O)[C@@H](Cc2c[nH]c3ccccc23)NC(=O)[C@H](Cc2ccccc2)NC(=O)[C@@H](NC(=O)[C@H](N)Cc2ccccc2)CSSC[C@@H](C(=O)N[C@H](CO)[C@@H](C)O)NC1=O` [Octreotide (acetate)], the remaining activity at 1.25 µM was determined as 92.6% in assay [1] (Well no.=6556, low concentration screen) and 97.5% in assay [1] (Well no.=7396, low concentration screen). The remaining activity at 3.75 µM in assay [2] (Well no.=6556, high concentration screen) amounted to 94.1%; in assay [2] (Well no.=7396, high concentration screen) it was 93.2%.
In the case of `O=C(NCc1ccccc1)c1csc(Nc2ccncn2)n1` [Thiazovivin], the remaining activity at 1.25 µM in assay [1] (Well no.=4867, low concentration screen) came to 100%. Also, the remaining activity at 3.75 µM in assay [2] (Well no.=4867, high concentration screen) is 102%.
For the molecule `O=C(O)CN(CCN(CC(=O)O)Cc1ccccc1O)Cc1ccccc1O`, the remaining activity at 1.25 µM in assay [1] (Well no.=3846, low concentration screen) was found to be 106%. Further, the remaining activity at 3.75 µM in assay [2] (Well no.=3846, high concentration screen) worked out at 103%.
With `O=c1[nH]ccc2c(S(=O)(=O)N3CCCNCC3)cccc12` [HA 1100 hydrochloride - 1-[(1,2-Dihydro-1-oxo-5-isoquinolinyl)sulfonyl]hexahydro-1H-1,4-diazepine hydrochloride], in assay [1] (Well no.=2526, low concentration screen), the remaining activity at 1.25 µM is 95.2%. In addition, in assay [2] (Well no.=2526, high concentration screen), the remaining activity at 3.75 µM worked out at 97.2%.
`Cc1c(F)cccc1NC(=O)Nc1ccc(Cl)c(S(=O)(=O)[C@H]2CCCNC2)c1O` [Danirixin]: the remaining activity at 1.25 µM in assay [1] (Well no.=8173, low concentration screen) was determined as 111%. The remaining activity at 3.75 µM in assay [2] (Well no.=8173, high concentration screen) amounted to 103%.
Consider `COC(=O)[C@H](Cc1ccccc1)NC(=O)[C@@H](N)CC(=O)O` [Aspartame] (H-Asp-Phe-OMe), for which the remaining activity at 1.25 µM was determined as 100% in assay [1] (Well no.=5048, low concentration screen) and 102% in assay [1] (Well no.=7302, low concentration screen). Also, the remaining activity at 3.75 µM in assay [2] (Well no.=5048, high concentration screen) was 101%; in assay [2] (Well no.=7302, high concentration screen), 102%.
`CN1CC[C@H](c2c(O)cc(O)c3c(=O)cc(-c4ccccc4Cl)oc23)[C@H](O)C1` [Alvocidib]: in assay [1] (Well no.=2695, low concentration screen), the remaining activity at 1.25 µM worked out at 98.7%. Further, the remaining activity at 3.75 µM in assay [2] (Well no.=2695, high concentration screen) was determined as 104%.
With `CC(C)C[C@H](NC(=O)[C@H](Cc1ccccc1)NC(=O)CNC(=O)[C@@H](C)NC(=O)[C@@H](N)Cc1ccc(O)cc1)C(=O)O` [[D-Ala2]leucine-enkephalin], the remaining activity at 1.25 µM in assay [1] was 101%. In assay [2], the remaining activity at 3.75 µM was found to be 98.6%.
In the case of `O=C(O)COCCN1CCN(C(c2ccccc2)c2ccc(Cl)cc2)CC1` (stereo not drawn) [Cetirizine (dihydrochloride)], in assay [1] (Well no.=7325, low concentration screen), the remaining activity at 1.25 µM was 104%. The remaining activity at 3.75 µM in assay [2] (Well no.=7325, high concentration screen) stood at 103%.
Take `Nc1nc(=O)c2nc(CNc3ccc(C(=O)N[C@@H](CCC(=O)O)C(=O)O)cc3)cnc2[nH]1` [Folic acid]: in assay [1] (Well no.=7300, low concentration screen), the remaining activity at 1.25 µM worked out at 97.8%. Also, in assay [2] (Well no.=7300, high concentration screen), the remaining activity at 3.75 µM was determined as 96.1%.
With `O=C(O)Cc1cnc[nH]1` [Imidazole-4-acetic acid hydrochloride], in assay [1] (Well no.=620, low concentration screen), the remaining activity at 1.25 µM worked out at 97.6%. Further, in assay [2] (Well no.=620, high concentration screen), the remaining activity at 3.75 µM was determined as 101%.
Turning to `O=C(OCOC(=O)[C@H]1CCCN1C(=O)CCCCC(=O)N1CCC[C@@H]1C(=O)OCOC(=O)OC1CCOCC1)OC1CCOCC1` [amyloid P-IN-1], the remaining activity at 1.25 µM in assay [1] (Well no.=7788, low concentration screen) turned out to be 103%. Further, the remaining activity at 3.75 µM in assay [2] (Well no.=7788, high concentration screen) turned out to be 105%.
For `COc1cc2c(cc1OC)[C@H]1CC(=O)[C@H](CC(C)C)CN1CC2` (racemic) [Tetrabenazine (Racemate)], the remaining activity at 1.25 µM in assay [1] (Well no.=8692, low concentration screen) turned out to be 95.2%. In addition, the remaining activity at 3.75 µM in assay [2] (Well no.=8692, high concentration screen) amounted to 93.1%.
Consider `COc1ccc(C[C@@H]2c3cc(OC)c(OC)cc3CC[N@+]2(C)CCC(=O)OCCCCCOC(=O)CC[N@@+]2(C)CCc3cc(OC)c(OC)cc3[C@H]2Cc2ccc(OC)c(OC)c2)cc1OC` [Atracurium besylate], for which the remaining activity at 1.25 µM in assay [1] (Well no.=2133, low concentration screen) was 92.8%. Further, the remaining activity at 3.75 µM in assay [2] (Well no.=2133, high concentration screen) was determined as 98.2%.
Turning to `O=Nc1c(-c2c(O)[nH]c3ccccc23)[nH]c2ccccc12` [Indirubin-3?-monoxime], in assay [1] (Well no.=2358, low concentration screen), the remaining activity at 1.25 µM came to 99.7%. In assay [2] (Well no.=2358, high concentration screen), the remaining activity at 3.75 µM stood at 106%.
In the case of `O=C1Nc2ccc(Cl)cc2/C1=C/c1cc(Cl)c(O)c(Cl)c1` [PKR Inhibitor, Negative Control], the remaining activity at 1.25 µM in assay [1] (Well no.=2513, low concentration screen) is 96.5%. Moreover, the remaining activity at 3.75 µM in assay [2] (Well no.=2513, high concentration screen) was determined as 99%.
Turning to `CCCCC/C=C\C/C=C\C/C=C\CCCCC(=O)O` [6(Z), 9(Z), 12(Z)-Octadecatrienoic Acid], in assay [1] (Well no.=4360, low concentration screen), the remaining activity at 1.25 µM was 107%. For the same molecule, in assay [2] (Well no.=4360, high concentration screen), the remaining activity at 3.75 µM came out at 107%.
For the molecule `CCOC(=O)N1c2ccc(C(F)(F)F)cc2[C@@H](N(Cc2cc(C(F)(F)F)cc(C(F)(F)F)c2)C(=O)OC)C[C@H]1CC` [Torcetrapib (CP-529414)], the remaining activity at 1.25 µM in assay [1] (Well no.=4749, low concentration screen) was determined as 95.8%. Moreover, the remaining activity at 3.75 µM in assay [2] (Well no.=4749, high concentration screen) amounted to 98.1%.
With `C=CCCCCCCCCCCC(=O)O` [12-Tridecenoic acid], in assay [1] (Well no.=4264, low concentration screen), the remaining activity at 1.25 µM is 91.3%. Besides, in assay [2] (Well no.=4264, high concentration screen), the remaining activity at 3.75 µM was 98%.
Take `COc1ccc(C[C@H](N)C(=O)N[C@H]2[C@@H](O)[C@H](n3cnc4c(N(C)C)ncnc43)O[C@@H]2CO)cc1` [Puromycin]: the remaining activity at 1.25 µM in assay [1] (Well no.=1674, low concentration screen) was found to be 98.5%; in assay [1] (Well no.=3350, low concentration screen) it was 93.8%. For the same molecule, the remaining activity at 3.75 µM in assay [2] (Well no.=1674, high concentration screen) is 97.6%; in assay [2] (Well no.=3350, high concentration screen), 90.4%.

(Values after paper PMC8286840, “Identifying SARS-CoV-2 antiviral compounds by screening for small molecule inhibitors of Nsp3 papain-like protease” (Biochemical Journal, 2021).)
